Results from article PMC4390081 (Biochemistry, 2013).

Target: chlorite dismutase (DaCld) (Dechloromonas aromatica (nom. nud.), UniProt Q47CX0)
Experiment: steady-state peroxidase assay
Assay type: biochemical

Sequence of chlorite dismutase (DaCld) (Q47CX0 35-282): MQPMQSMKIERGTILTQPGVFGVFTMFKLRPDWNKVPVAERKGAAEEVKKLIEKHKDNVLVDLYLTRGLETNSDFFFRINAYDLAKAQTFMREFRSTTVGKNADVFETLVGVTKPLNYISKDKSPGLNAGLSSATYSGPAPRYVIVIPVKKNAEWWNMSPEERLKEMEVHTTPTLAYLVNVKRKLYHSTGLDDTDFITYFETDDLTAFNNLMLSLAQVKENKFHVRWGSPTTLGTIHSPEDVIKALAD

In the case of `COc1ccccc1O` [guaiacol, 2-methoxyphenol], the “kcat (S^-1)” value was 2.8 s⁻¹.
